The values below come from patent EP0024776A1, “4-Phenyl and 5-phenyl-1,4,5,6-tetrahydropyrimidine derivatives, pharmaceutical compositions containing said derivatives, and process for preparing said derivatives” (SYNTEX (U.S.A.) INC., priority 1979, dated 1981).

Data set [1] deals with reserpine-induced hypothermia. In words: Reversal of reserpine-induced hypothermia in mice (potential antidepressant activity). It counts as in vivo. As to conditions: Mus musculus, po; minimum effective dose, p.o., statistically significant reversal of hypothermia induced by reserpine 5mg/kg i.p.; body temperature 1-4 hours post-drug; read-out: MED. The protocol: REVERSAL OF RESERPINE-INDUCED HYPOTHERMIA IN MICE
The assay was used to evaluate the potential antidepressant activity of compounds of this invention.
Male Swiss-Webster Institute for Cancer Research mice weighing 18-24g were utilized for these experiments. The mice, having been in holding quarters for a minimum of 5 days, were placed in plexi-glass cages 17cm by 20cm with sanicel bedding. Five of the 6 groups of 10 mice each, received reserpine, 5mg/kg, i.p. The reserpine (lOmg) was dissolved in 0.06ml glacial acetic acid and 20ml water. The sixth group was not pretreated. Two hours later the mice were dosed with either water or test compound at various doses. The group which had not received the reserpine pretreatment was also dosed with water; consequently a postive and a negative control group were present. The test compounds were administered orally (p.o.) in logarithmically spaced doses.
One hour after the oral dosing, body temperatures were taken from 8 mice from each group utilizing a Yellow Springs-Telethermometer unit. Repeated determinations of body temperature occured at 2, 3 and 4 hours post-drug.
The percent reversal of the reserpine-induced hypothermia was determined according to the formula: [formula] and subjected to an analysis of variance (X = average body temperature of mice from the group). Statistically significant reversal of the reserpine-induced hypothermia was used as a criterion for determining the minimum effective dose (MED) of the compound.

The next data set has as its system tonic extensor seizure. Nature of the data set: Anticonvulsant activity - maximal electroshock test. As to conditions: Mus musculus, ip, 0.25 h; i.p. fifteen minutes prior to transcorneal electroshock (50 mamp. 0.2sec); antagonism of tonic extensor seizure. It counts as in vivo, mice. The protocol: ANTICONVULSANT ACTIVITY - MAXIMAL ELECTROSHOCK TEST This assay was used to evaluate the anticonvulsant activity of compounds of this invention. Groups of 10 male Hilltop ICR mice were utilized for these experiments. At fifteen minutes prior to testing, drug or vehicle was administered intraperitoneally (i.p.). At the appropriate time the mice were subjected to a transcorneal electroshock generated by a stimulator (Woodbury, L.A. and Davenport, V.D.: Design and Use Of A New Electroshock Seizure Apparatus And Analysis Of Factors Altering Seizure Threshold And Pattern. Arch. Intern. Pharmacodyn. Ther. 92: 97-107,1952). The shock (50 […]) elicited three types of seizures: tonic extension, tonic flexion and clonic seizures. For the purposes of this test, the antagonism of the tonic extensor seizure was utilized as an endpoint. The quantal data accumulated from several doses of a test compound were utilized to determine an ED50 (Litchfield, J.F. and Wilcoxon, F.: A Simplified Method of Evaluating Dose-effect Experiments). J. Pharmacol. Exp. Ther. 96: 99-113, 1949).

Another data set concerns jaw opening reflex. Nature of the data set: Centrally acting skeletal muscle relaxant assay - cat linguomandibular reflex preparation. To be noted: Felis catus, iv, anesthetized cats; percent reduction of the jaw opening reflex. The format is in vivo. How it is done:
This assay is used to assess the centrally acting skeletal muscle relaxant properties of compounds of this invention.
Mongrel cats weighing 2-Skg were anesthetized with phenobarbital sodium, 180mg/kg, i.p. The anesthetized cat was placed in a stereotaxic headholder, shaved, and the femoral artery and vein were cannulated. The cannula from the fermoral artery was connected to a Statham Model P-23 AC Transducer in order to monitor blood pressure. The femoral vein was utilized for the administration of drugs.
The cat was placed in a prone position and two electrodes, consisting of wound clips soldered to wires, were attached bilaterally to the base of the tongue. These leads were then connected to a Grass S8 stimulator. A Grass FT-03 Transducer was placed beneath the jaw. […] Signals from the transducers were recorded on a Beckman Polygraph.
The stimulator was set to deliver single pulses of 2.5msec duration. […] Once the response had ben determined to be stable, drug solution was administered i.v. in logarithmically spaced doses. […]
The percent reduction of the jaw opening reflex was utilized for determining the activity of the drug. Comparisons of the relative block of the reflex, the steepness of the dose response curve, and the cardiovascular sequel were evaluated and an ED50 determined.

The test system of a further data set is male mice (ICR-Simonsen). In words: Acute intraperitoneal toxicity and behavior in mice (Example 14). To be noted: for No. of Deaths: 5 mice.
Assay in data set [2]: as above
As to conditions: mouse, in vivo, ip.

For the compound `COC(=O)NC1=NC(c2ccccc2)CCN1` (centres unmarked) [4|H|H|H|CH3OC(O)-, 2-methoxycarbonylamino-4-phenyl-1,4,5,6-tetrahydropyrimidine], in data set [1], the minimal effective dose was found to be 2.5 mg/kg.
Same read-out and setting: the figure for `CC(C)OC(=O)NC1=NCC(c2c(Cl)cccc2Cl)CN1` (centres unmarked) [5|2-Cl|6-Cl|H|(CH3)2CHOC(O)-, 2-i-propoxycarbonylamino-5-(2,6-dichlorophenyl)-1,4,5,6-tetrahydropyrimidine] is 1 mg/kg.
As to `CCCOC(=O)NC1=NC(c2ccccc2)CCN1` (centres unmarked) [2-n-propoxycarbonylamino-4-phenyl-1,4,5,6-tetrahydropyrimidine], it took a dose of 30 mg/kg to reach the 50% effect level in the data set with tonic extensor seizure (ED50). Further, the minimal effective dose in data set [1] amounted to 10 mg/kg.
For the compound `NC1=NC(c2ccccc2)CCN1` (centres unmarked) [4|H|H|H|H, 2-amino-4-phenyl-1,4,5,6-tetrahydropyrimidine], the minimal effective dose in data set [1] is 10 mg/kg.
Regarding `COC(=O)NC1=NC(c2cccc(OC)c2)CCN1` (centres unmarked) [4|H|3-CH3O|H|CH3OC(O)], the minimal effective dose in data set [1] was found to be 10 mg/kg.
On to `COC(=O)NC1=NC(c2ccc(F)cc2)CCN1` (centres unmarked) [4|H|4-F|H|CH3COC(O)-, 2-methoxycarbonylamino-4-(4-fluorophenyl)-1,4,5,6-tetrahydropyrimidine], for which, in data set [1], the minimal effective dose turned out to be 1 mg/kg.
Turning to `COC(=O)NC1=NCC(c2cccc(Br)c2)CN1` (centres unmarked) [5|H|3-Br|H|CH3OC(O)-, 2-methoxycarbonylamino-5-(3-bromophenyl)-1,4,5,6-tetrahydropyrimidine], the minimal effective dose in data set [1] was determined as 1 mg/kg.
In the data set with jaw opening reflex, `COC(=O)NC1=NCC(c2cccc(OC)c2)CN1` (centres unmarked) [5|H|3-MeO|H|CH3OC(O)-, 2-methoxycarbonylamino-5-(3-methoxyphenyl)-1,4,5,6-tetrahydropyrimidine] had an ED50 of 7 mg/kg. The minimal effective dose in data set [1] was 10 mg/kg.
In the case of `COC(=O)NC1=NCC(c2ccccc2)CN1C` (stereo not drawn) [5|H|H|CH3|CH3OC(O)-, l-Methyl-2-methoxycarbonylamino-5-phenyl-1,4,5,6-tetrahydropyrimidine], the minimal effective dose in data set [1] was 0.04 mg/kg.
For `COC(=O)NC1=NCC(c2ccc(C(C)C)cc2)CN1` (centres unmarked) [5|H|4-(CH3)2CH-|H|CH3OC(O), 2-methoxycarbonylamino-5-(4-isopropylphenyl)-1,4,5,6-tetrahydropyrimidine], in the data set with tonic extensor seizure, the median effective dose (ED50) was 55 mg/kg.
The compound `NC1=NCC(c2cccc(Br)c2)CN1` (centres unmarked) [5|H|3-Br|H|H-, 2-amino-5-(3-bromophenyl)-1,4,5,6-tetrahydropyrimidine] returned an ED50 in the data set with tonic extensor seizure of 47 mg/kg. In addition, the minimal effective dose in data set [1] is 10 mg/kg.
In the same order, the values of `COC(=O)NC1=NC(c2ccccc2C(F)(F)F)CCN1` (centres unmarked) [4|H|2-CF3|H|CH3OC(O)-, 2-methoxycarbonylamino-4-(2-trifluoromethylphenyl)-1,4,5,6-tetrahydropyrimidine] are 44 mg/kg and 1 mg/kg.
Take `COC(=O)NC1=NCC(c2ccccc2)CN1` (centres unmarked) [5|H|H|H|CH3OC(O)-, 2-methoxycarbonylamino-5-phenyl-1,4,5,6-tetrahydropyrimidine]: the minimal effective dose in data set [1] amounted to 0.0006 mg/kg.
For the compound `COC(=O)NC1=NCC(c2ccc(Cl)cc2Cl)CN1` (centres unmarked) [5|2-Cl|4-Cl|H|CH3OC(O)-, 2-methoxycarbonylamino-5-(2,4-dichlorophenyl)-1,4,5,6-tetrahydropyrimidine], in the data set on jaw opening reflex, it took a dose of 25 mg/kg to reach the 50% effect level (ED50). Further, the minimal effective dose in data set [1] came to 1 mg/kg.
In turn, `COC(=O)NC1=NCC(c2ccc(F)cc2)CN1` (centres unmarked) [5|H|4-F|H|CH3OC(O)-, 2-methoxycarbonylamino-5-(4-fluorophenyl)-1,4,5,6-tetrahydropyrimidine] yielded an ED50 with tonic extensor seizure of 100 mg/kg. Moreover, the minimal effective dose in data set [1] was 0.15 mg/kg.
In the same order, the values of `COC(=O)NC1=NCC(c2ccccc2Cl)CN1` (centres unmarked) [5|H|2-Cl|H|CH3OC(O)-, 2-methoxycarbonylamino-5-(2-chlorophenyl)-1,4,5,6-tetrahydropyrimidine] are 42 mg/kg and 10 mg/kg.
Consider `CC(C)OC(=O)NC1=NCC(c2ccccc2)CN1` (centres unmarked) [5|H|H|H|(CH3)2CHOC(O)-, 2-isopropoxycarbonylamino-5-phenyl-1,4,5,6-tetrahydropyrimidine], for which the minimal effective dose in data set [1] was determined as 0.04 mg/kg.
As to `COC(=O)NC1=NCC(c2ccccc2)CN1.O=C(O)/C=C\C(=O)O` (centres unmarked) [2-Methoxycarbonylamino-5-phenyl-1,4,5,6-tetrahydropyrimidine, maleate], the “No. of Deaths” value in the data set on male mice (ICR-Simonsen) (Dose 10 mg/kg i.p.) is recorded as 0; in the data set on male mice (ICR-Simonsen) (Dose 15 mg/kg i.p.), 0; in the data set on male mice (ICR-Simonsen) (Dose 20 mg/kg i.p.), 0; in the data set on male mice (ICR-Simonsen) (Dose 25 mg/kg i.p.) it was 0; in the data set on male mice (ICR-Simonsen) (Dose 27.5 mg/kg i.p.), 4; with male mice (ICR-Simonsen) (Dose 30 mg/kg i.p.), 5. Further, the onset of effects result in the data set on male mice (ICR-Simonsen) (after drug administration, i.p., mice) is “less than five minutes”. In the data set with male mice (ICR-Simonsen) (after drug, i.p., mice), the “surviving animals appeared normal” value fell in the range of 90 to 120 min. In the data set with male mice (ICR-Simonsen) (i.p., 10-30 mg/kg, observed for 2 hours post drug), the Behavioral effects observed result was “decreased motor activity, ataxia exophthalmia piloerection increased induced activity, dysporea (increased depth and decreased rate of respiration), lacrimation twitching, moderate clonic convulsions and death”. The median lethal dose (LD50) in data set [2] was 26.5 mg/kg.
As to `CCOC(=O)NC1=NCC(c2ccccc2)CN1` (centres unmarked) [5|H|H|H|CH3CH2OC(O)-, 2-ethoxycarbonylamino-5-phenyl-1,4,5,6-tetrahydropyrimidine], the minimal effective dose in data set [1] worked out at 0.04 mg/kg.
On the same count and under the same terms, the figure for `CCCOC(=O)NC1=NCC(c2cccc(Br)c2)CN1` (centres unmarked) [5|H|3-Br|H|CH3(CH)2OC(O)-, 2-n-propoxycarbonylamino-5-(3-bromophenyl)-1,4,5,6-tetrahydropyrimidine] is 1 mg/kg; for `NC1=NCC(c2ccccc2)CN1` (centres unmarked) [5|H|H|H|H, 2-amino-5-phenyl-1,4,5,6-tetrahydropyrimidine] it is 0.01 mg/kg.
On to `COC(=O)NC1=NCC(c2c(Cl)cccc2Cl)CN1` (centres unmarked) [5|2-Cl|6-Cl|H|CH3OC(O)-, 2-methoxycarbonylamino-5-(2,6-dichlorophenyl)-1,4,5,6-tetrahydropyrimidine], for which the minimal effective dose in data set [1] turned out to be 0.15 mg/kg.
